Where a name gives a salt, the structure may show the parent alone.
Target: T1, human recombinant ENPP1 (Homo sapiens, UniProt P22413)
T1 construct: purchased R & D systems
T1 sequence (P22413 1-925): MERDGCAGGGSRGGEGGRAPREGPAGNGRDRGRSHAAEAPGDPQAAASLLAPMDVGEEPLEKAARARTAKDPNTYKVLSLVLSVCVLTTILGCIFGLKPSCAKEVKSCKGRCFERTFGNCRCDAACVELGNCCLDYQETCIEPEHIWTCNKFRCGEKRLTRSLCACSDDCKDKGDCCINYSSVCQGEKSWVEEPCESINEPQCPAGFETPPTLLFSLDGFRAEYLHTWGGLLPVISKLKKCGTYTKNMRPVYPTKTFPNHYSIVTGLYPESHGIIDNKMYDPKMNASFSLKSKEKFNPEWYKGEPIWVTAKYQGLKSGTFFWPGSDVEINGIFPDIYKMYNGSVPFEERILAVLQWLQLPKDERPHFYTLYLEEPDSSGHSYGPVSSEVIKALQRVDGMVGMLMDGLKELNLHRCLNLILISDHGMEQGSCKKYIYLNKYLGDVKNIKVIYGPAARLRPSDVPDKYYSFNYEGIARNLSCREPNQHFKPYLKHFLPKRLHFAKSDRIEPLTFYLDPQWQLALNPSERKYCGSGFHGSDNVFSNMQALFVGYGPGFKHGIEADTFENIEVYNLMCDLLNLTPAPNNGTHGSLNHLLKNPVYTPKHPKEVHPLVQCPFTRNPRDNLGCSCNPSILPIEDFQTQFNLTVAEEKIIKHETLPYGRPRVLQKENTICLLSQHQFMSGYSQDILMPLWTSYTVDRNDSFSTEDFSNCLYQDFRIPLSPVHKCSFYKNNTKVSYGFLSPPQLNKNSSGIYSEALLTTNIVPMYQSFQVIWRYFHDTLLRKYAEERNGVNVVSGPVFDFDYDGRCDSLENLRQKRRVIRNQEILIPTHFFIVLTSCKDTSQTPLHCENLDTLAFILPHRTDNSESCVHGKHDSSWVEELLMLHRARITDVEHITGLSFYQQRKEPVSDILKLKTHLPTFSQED
Assay: ENPP1 enzyme assay with cGAMP substrate (AMP-Glo luminescence)
Assay type: biochemical
Conditions: human recombinant ENPP1 3 ng/reaction, cGAMP 5 μM, 37° C. 90 minutes, read-out: Enzymatic activity (ENPP1 IC50)
Description: ENPP1 hydrolyzes nucleotides or nucleotide derivatives to produce nucleoside -5′-monophosphate and pyrophosphate. in addition, ENPP1 hydrolyzes 2′,3′-cGAMP to produce 5′-adenosine monophosphate (AMP) and 5′-guanosine monophosphate (GMP). AMP produced from the reaction is measured using the AMP-Glo® kit (Promega). The AMP-Glo® kit contains two reagents. The first reagent terminates the AMP-producing enzymatic reaction, removes ATP and converts the produced AMP into ADP. The second reagent converts ADP to ATP which is used to generate luminescence in the luciferase reaction. The amount of luminescence measured is proportional to the amount of AMP produced by ENPP1.
The final reaction mixture contains 50 mM Tris (pH 8.5) buffer, 250 mM NaCl, 0.5 mM. CaCl2, 1 μM ZnCl2, 5% glycerol and 1% DMSO. […] The reaction was initiated by addition of cGAMP (at a final concentration of 5 μM) and reacted at 37° C. for 90 minutes. At the end of the reaction, 10 μl of the AMP-Glo first reagent was added to stop the reaction and the result was stored at room temperature for […]. After storage, 20 μl of an AMP detection solution (a mixture of AMP-Glo II reagent and Kinase-Gio at a ratio of 1:100) was added and stored at room. temperature for 1 hour. Luminescence signals were measured using a Victor® plate reader (Perkin Elmer). The maximal activity control (containing enzymes and substrates only in the presence of 1% DMSO; MAX) and the minimal activity control (containing substrates and 1% DMSO; MIN) were evaluated simultaneously. In each experiment, serially diluted reference ENPP1 inhibitors were tested together. IC50, indicating % residual activity versus compound concentration was determined by fitting inhibition curves using the 3-parameter analysis of GraphPad Prism® software. Serially diluted samples of one compound were tested two or more times and an average IC50 of each compound was calculated.

Row | SMILES | IC50 [nM]
1 | NS(=O)(=O)Nc1cccc(-c2nn(Cc3ccccc3)c(=O)c3ccccc23)c1 [Compound No. 89, N-(3-(3-benzyl-4-oxo-3,4-dihydrophthalazin-1-yl)phenyl)sulfamide hydrochloride] | < 1000
2 | NS(=O)(=O)NCc1cccc(-c2nn(Cc3ccccc3)c(=O)c3ccccc23)c1 [Compound No. 90, N-(3-(3-benzyl-4-oxo-3,4-dihydrophthalazin-1-yl)benzyl)sulfamide hydrochloride] | > 10000
3 | NS(=O)(=O)Nc1ccc(-c2n[nH]c(=O)c3ccccc23)cc1 [Compound No. 91, N-(4-(4-oxo-3,4-dihydrophthalazin-1-yl)phenyl)sulfamide] | 1000 to 10000
4 | Cn1nc(-c2ccc(NS(N)(=O)=O)cc2)c2ccccc2c1=O [Compound No. 92, N-(4-(3-methyl-4-oxo-3,4-dihydrophthalazin-1-yl)phenyl)sulfamide] | < 1000
5 | NS(=O)(=O)Nc1ccc(-c2nn(Cc3ccccc3)c(=O)c3ccccc23)cc1 [Compound No. 93, N-(4-(3-benzyl-4-oxo-3,4-dihydrophthalazin-1-yl)phenyl)sulfamide] | > 10000
6 | Cn1nc(-c2cccc(CNS(N)(=O)=O)c2)c2ccccc2c1=O [Compound No. 94, N-(3-(3-methyl-4-oxo-3,4-dihydrophthalazin-1-yl)benzyl)sulfamide trifluoroacetic acid] | < 1000
7 | NS(=O)(=O)NCc1cccc(-c2n[nH]c(=O)c3ccccc23)c1 [Compound No. 95, N-(3-(3-oxo-3,4-dihydrophthalazin-1-yl)benzyl)sulfamide hydrochloride] | < 1000
8 | NS(=O)(=O)NCc1ccc(-c2n[nH]c(=O)c3ccccc23)cc1 [Compound No. 96, N-(4-(4-oxo-3,4-dihydrophthalazin-1-yl)benzyl)sulfamide hydrochloride] | < 1000
9 | Cn1nc(-c2ccc(CNS(N)(=O)=O)cc2)c2ccccc2c1=O [Compound No. 97, N-(4-(3-methyl-4-oxo-3,4-dihydrophthalazin-1-yl)benzyl)sulfamide hydrochloride] | < 1000
10 | CCn1nc(-c2ccc(CNS(N)(=O)=O)cc2)c2ccccc2c1=O [Compound No. 98, N-(4-(3-ethyl-4-oxo-3,4-dihydrophthalazin-1-yl)benzyl)sulfamide hydrochloride] | 1000 to 10000
11 | CC(C)n1nc(-c2ccc(CNS(N)(=O)=O)cc2)c2ccccc2c1=O [Compound No. 99, N-(4-(3-isopropyl-4-oxo-3,4-dihydrophthalazin-1-yl)benzyl)sulfamide trifluoroacetic acid] | > 10000
12 | NS(=O)(=O)NCc1ccc(-c2nn(-c3ccccc3)c(=O)c3ccccc23)cc1 [Compound No. 100, N-(4-(4-oxo-3-phenyl-3,4-dihydrophthalazin-1-yl)benzyl)sulfamide hydrochloride] | < 1000
13 | NS(=O)(=O)NCc1ccc(-c2nn(Cc3ccccc3)c(=O)c3ccccc23)cc1 [Compound No. 101, N-(4-(3-benzyl-4-oxo-3,4-dihydrophthalazin-1-yl)benzyl)sulfamide hydrochloride] | 1000 to 10000
14 | NS(=O)(=O)NCc1ccc(-c2nn(Cc3ccc(F)cc3)c(=O)c3ccccc23)cc1 [Compound No. 102, N-(4-(3-(4-fluorobenzyl)-4-oxo-3,4-dihydrophthalazin-1-yl)benzyl)sulfamide hydrochloride] | 1000 to 10000
15 | COc1ccc2c(=O)[nH]nc(-c3ccc(CNS(N)(=O)=O)cc3)c2c1 [Compound No. 103, N-(4-(7-methoxy-4-oxo-3,4-dihydrophthalazin-1-yl)benzyl)sulfamide hydrochloride] | < 1000
16 | COc1cc2c(-c3ccc(CNS(N)(=O)=O)cc3)n[nH]c(=O)c2cc1OC [Compound No. 104, N-(4-(6,7-dimethoxy-4-oxo-3,4-dihydrophthalazin-1-yl)benzyl)sulfamide hydrochloride] | < 1000
17 | COc1ccc2c(=O)n(C)nc(-c3ccc(CNS(N)(=O)=O)cc3)c2c1 [Compound No. 105, N-(4-(7-methoxy-3-methyl-4-oxo-3,4-dihydrophthalazin-1-yl)benzyl)sulfamide hydrochloride] | 1000 to 10000
18 | COc1ccc2c(-c3ccc(CNS(N)(=O)=O)cc3)n[nH]c(=O)c2c1 [Compound No. 106, N-(4-(6-methoxy-4-oxo-3,4-dihydrophthalazin-1-yl)benzyl)sulfamide hydrochloride] | 1000 to 10000
19 | COc1ccc2c(-c3ccc(CNS(N)(=O)=O)cc3)nn(C)c(=O)c2c1 [Compound No. 107, N-(4-(6-methoxy-3-methyl-4-oxo-3,4-dihydrophthalazin-1-yl)benzyl)sulfamide hydrochloride] | > 10000
20 | COc1cc2c(-c3ccc(CNS(N)(=O)=O)cc3)nn(C)c(=O)c2cc1OC [Compound No. 108, N-(4-(6,7-dimethoxy-3-methyl-4-oxo-3,4-dihydrophthalazin-1-yl)benzyl)sulfamide hydrochloride] | 1000 to 10000
21 | COc1cc2c(-c3cccc(CNS(N)(=O)=O)c3)n[nH]c(=O)c2cc1OC [Compound No. 109, N-(3-(6,7-dimethoxy-4-oxo-3,4-dihydrophthalazin-1-yl)-benzyl) sulfamide] | 1000 to 10000
22 | COc1cc2c(-c3cccc(CNS(N)(=O)=O)c3)nn(C)c(=O)c2cc1OC [Compound No. 110, N-(3-(6,7-dimethoxy-3-methyl-4-oxo-3,4-dihydrophthalazin-1-yl)-benzyl) sulfamide] | 1000 to 10000
23 | COc1cc2c(-c3ccc(CNS(N)(=O)=O)c(F)c3)n[nH]c(=O)c2cc1OC [Compound No. 111, N-(4-(6,7-dimethoxy-4-oxo-3,4-dihydrophthalazin-1-yl)-2-fluorobenzyl)sulfamide hydrochloride] | < 1000
24 | COc1cc2c(-c3ccc(CNS(N)(=O)=O)cc3F)n[nH]c(=O)c2cc1OC [Compound No. 112, N-(4-(6,7-dimethoxy-4-oxo-3,4-dihydrophthalazin-1-yl)-3-fluorobenzyl)sulfamide hydrochloride] | 1000 to 10000
25 | COc1cc2c(-c3ccc(CN(C)S(N)(=O)=O)c(F)c3)n[nH]c(=O)c2cc1OC [Compound No. 113, N-(4-(6,7-dimethoxy-4-oxo-3,4-dihydrophthalazin-1-yl)-2-fluorobenzyl)-N-methyl sulfamide hydrochloride] | 1000 to 10000
26 | COc1cc2c(-c3ccc(CN(C)S(N)(=O)=O)cc3F)n[nH]c(=O)c2cc1OC [Compound No. 114, N-(4-(6,7-dimethoxy-4-oxo-3,4-dihydrophthalazin-1-yl)-3-fluorobenzyl)-N-methyl sulfamide hydrochloride] | 1000 to 10000
27 | COc1cc2c(-c3ccc(CNS(N)(=O)=O)c(F)c3F)n[nH]c(=O)c2cc1OC [Compound No. 115, N-(4-(6,7-dimethoxy-4-oxo-3,4-dihydrophthalazin-1-yl)-2,3-difluorobenzyl)sulfamide hydrochloride] | 1000 to 10000
28 | COc1cc2c(-c3ccc(CNS(N)(=O)=O)cc3C(F)(F)F)n[nH]c(=O)c2cc1OC [Compound No. 116, hydrochloride] | 1000 to 10000
29 | COc1cc2c(-c3ccc(CN(C)S(N)(=O)=O)c(F)c3F)n[nH]c(=O)c2cc1OC [Compound No. 117, N-(4-(6,7-dimethoxy-4-oxo-3,4-dihydrophthalazin-1-yl)-2,3-difluorobenzyl)-N-methyl sulfamide hydrochloride] | > 10000
30 | COc1cc2c(-c3ccc(CN(C)S(N)(=O)=O)cc3C(F)(F)F)n[nH]c(=O)c2cc1OC [Compound No. 118, hydrochloride] | > 10000

— patent publication US20230159469A1, “NOVEL PHTHALAZINE DERIVATIVE HAVING ECTONUCLOEOTIDE PYROPHOSPHATASE/PHOSPHODIESTE RASE INHIBITORY ACTIVITY, AND USE THEREOF” (TXINNO BIOSCIENCE INC., priority 2020, published 2023)
